In US4234586A, “Nitrogen bridgehead compounds having anti-allergic effect” (Chinoin Gyogyszer es Vegyeszeti Termekek Gyara Rt., priority 1977, dated 1980):

Assays:
[1] = test system: rats; experiment: PCA test (antiallergic effect, rats); type: in vivo, rat; conditions: for ED50 / inhibition in vivo at 320 µM, 320 µmol/kg: Rattus norvegicus; for inhibition in vivo at 320 µM, 320 µmol/kg: single dose of 320 μM/kg, route not given, read-out: PCA test, percentage of activity for a single dose of 320 μM/kg
Protocol: (§1) The PCA text [Ovary: J. Immun. 81, 355 (1958)] and the Church test [British J. Pharm. 46, 56-66 (1972); Immunology 29, 527-534 (1975)] were used. The tests were carried out on rats.

[2] = test system: Released Hist.; experiment: Released Hist. in vitro; type: cell-based; conditions: Rattus norvegicus
Protocol: as §1

[3] = test system: rats; experiment: Church test (antiallergic effect, rats); type: in vivo; conditions: Rattus norvegicus, iv
Protocol: as §1

[4] = test system: asthma; conditions: desired effect only by inhalation (spinhaler); cited from earlier work
[5] = iv, rats, i.v., second part of Table 1, read-out: PCA test ED50 i.v.
[6] = iv, read-out: ED50 in the PCA test, further compounds
[7] = iv, rats, i.v., read-out: PCA test ED50 i.v.
[8] = po, rats, p.o., read-out: PCA test ED50 p.o.

Q: With `CC1CCC(=NNc2cccnc2)c2ncc(C(=O)O)c(=O)n21` (centres unmarked) [Example 23, 6-methyl-9-(3-pyridyl-hydrazono)-4-oxo-6,7,8,9-tetrahydro-4H-pyrido(1,2-a)pyrimidine-3-carboxylic acid] as the molecule, how does the ED50 [1, 5] read?
A: 0.53 µmol/kg

Q: What about the ED50 [1, 6] of the same molecule?
A: 0.54 µmol/kg

Q: And the EC50 ([2]; second part of Table 1)?
A: 120 µM

Q: With `CC1CCC(=NNc2ccc(Br)cc2)c2ncc(C(=O)O)c(=O)n21` (centres unmarked) [Example 16, 9-(p-bromo-phenyl-hydrazono)-6-methyl-4-oxo-6,7,8,9-tetrahydro-4H-pyrido(1,2-a)pyrimidine-3-carboxylic acid] as the molecule, how does the inhibition in vivo at 320 µM, 320 µmol/kg ([1]; rats) read?
A: 100%

Q: What about the EC50 ([2]; third part of Table 1) of the same molecule?
A: 2 µM

Q: Which results are given for `CC1CCC(=NNc2ccc(C(=O)O)cc2)c2ncc(C(=O)O)c(=O)n21` (centres unmarked) [Example 48, 9-(4-carboxy-phenyl-hydrazono)-6-methyl-4-oxo-6,7,8,9-tetrahydro-4H-pyrido(1,2-a)pyrimidine-3-carboxylic acid]?
A: inhibition in vivo at 320 µM, 320 µmol/kg ([1]; rats): 100%; EC50 ([2]; third part of Table 1): 100 µM

Q: For `CC1CCC(=NNc2cccc(Cl)c2)c2ncc(C(=O)O)c(=O)n21` (centres unmarked) [Example 45, 9-(3-chloro-phenyl-hydrazono)-6-methyl-4-oxo-6,7,8,9-tetrahydro-4H-pyrido(1,2-a)pyrimidine-3-carboxylic acid], which inhibition in vivo at 320 µM, 320 µmol/kg ([1]; rats) is on record?
A: 100%

Q: What about the EC50 ([2]; third part of Table 1) of the same molecule?
A: 312 µM

Q: For `CC1CCC(=NNc2ccccc2)c2ncc(C(=O)O)c(=O)n21` (centres unmarked) [Example 14, 9-(phenyl-hydrazono)-6-methyl-4-oxo-6,7,8,9-tetrahydro-4H-pyrido(1,2-a)pyrimidine-3-carboxylic acid], which ED50 [1, 7] is on record?
A: 0.6 µmol/kg

Q: And the ED50 [1, 8]?
A: 1.2 µmol/kg

Q: And the ED50 [3]?
A: 0.31 µmol/kg

Q: Which inhibition in vivo at 320 µM, 320 µmol/kg ([1]; rats) does the source give for `CC1CCC(=NNc2cccc([N+](=O)[O-])c2)c2ncc(C(=O)O)c(=O)n21` (centres unmarked) [Example 43, 9-(3-nitro-phenyl)-hydrazono-6-methyl-4-oxo-6,7,8,9-tetrahydro-4H-pyrido(1,2-a)pyrimidine-3-carboxylic acid] here?
A: 100%

Q: And the EC50 ([2]; third part of Table 1)?
A: 100 µM

Q: Which results are given for `Cc1cccc(NN=C2CCC(C)n3c2ncc(C(=O)O)c3=O)c1` (centres unmarked) [Example 50, 9-(3-methyl-phenyl-hydrazono)-6-methyl-4-oxo-6,7,8,9-tetrahydro-4H-pyrido(1,2-a)pyrimidine-3-carboxylic acid]?
A: inhibition in vivo at 320 µM, 320 µmol/kg ([1]; rats): 100%; EC50 ([2]; third part of Table 1): 73 µM

Q: What does the source list for `CCOc1ccc(NN=C2CCC(C)n3c2ncc(C(=O)O)c3=O)cc1` (centres unmarked) [Example 35, 9-(p-ethoxy-phenyl-hydrazono)-6-methyl-4-oxo-6,7,8,9-tetrahydro-4H-pyrido(1,2-a)pyrimidine-3-carboxylic acid]?
A: ED50 [1, 6]: 1 µmol/kg; inhibition in vivo at 320 µM, 320 µmol/kg ([1]; rats): 100%; EC50 ([2]; third part of Table 1): 17.6 µM

Q: What does the source list for `CC1CCC(=NNc2ccc(Cl)cc2)c2ncc(C(=O)O)c(=O)n21` (centres unmarked) [Example 18, 9-(p-chloro-phenyl-hydrazono)-6-methyl-4-oxo-6,7,8,9-tetrahydro-4H-pyrido(1,2-a)pyrimidine-3-carboxylic acid]?
A: ED50 [1, 5]: 0.53 µmol/kg; ED50 [1, 6]: 0.53 µmol/kg; EC50 ([2]; second part of Table 1): 100 µM

Q: For `CC1CCC(=NNc2ccc(Cl)c(Cl)c2)c2ncc(C(=O)O)c(=O)n21` (centres unmarked) [Example 41, 9-(3,4-dichloro-phenyl-hydrazono)-6-methyl-4-oxo-6,7,8,9-tetrahydro-4H-pyrido-(1,2-a)pyrimidine-3-carboxylic acid], which inhibition in vivo at 320 µM, 320 µmol/kg ([1]; rats) is on record?
A: 100%

Q: And the EC50 ([2]; third part of Table 1)?
A: 100 µM

Q: For `CC1CCC(=NNc2ccccc2C(=O)O)c2ncc(C(=O)O)c(=O)n21` (centres unmarked) [Example 17, 9-(o-carboxy-phenyl-hydrazono)-6-methyl-4-oxo-6,7,8,9-tetrahydro-4H-pyrido(1,2-a)pyrimidine-3-carboxylic acid], which ED50 [1, 6] is on record?
A: 0.48 µmol/kg

Q: Which inhibition in vivo at 320 µM, 320 µmol/kg ([1]; rats) does the source give for `CC1CCC(=NN)c2ncc(C(=O)O)c(=O)n21` (centres unmarked) [Example 26, 9-hydrazono-6-methyl-4-oxo-6,7,8,9-tetrahydro-4H-pyrido(1,2-a)pyrimidine-3-carboxylic acid] here?
A: 89%

Q: And the EC50 ([2]; third part of Table 1)?
A: 90 µM

Q: Which ED50 [1, 7] does the source give for `CC1CCC(=NNc2ccccc2)c2ncc(C(=O)O)c(=O)n21` (single isomer, unassigned; (+)) [Example 37, (+)-9-(phenyl-hydrazono)-6-methyl-4-oxo-6,7,8,9-tetrahydro-4H-pyrido(1,2-a)pyrimidine-3-carboxylic acid] here?
A: 0.29 µmol/kg

Q: And the ED50 [1, 8]?
A: 1 µmol/kg

Q: What about the ED50 [3] of the same molecule?
A: 0.14 µmol/kg

Q: For `O=C(O)c1cc(=O)c2c(OCC(O)COc3cccc4oc(C(=O)O)cc(=O)c34)cccc2o1` [Disodium-chromoglycate, reference compound], which ED50 [1, 7] is on record?
A: 1 µmol/kg

Q: And the “activity by route of administration (in words)” value ([1]; oral vs intravenous)?
A: effective only when administered intravenously

Q: What about the “PCA test ED50 p.o. (result in words)” value ([1]; rats, p.o.) of the same molecule?
A: ineffective

Q: What about the ED50 [3] of the same molecule?
A: 0.84 µmol/kg

Q: And the “anti-asthmatic effect when administered orally” value [4]?
A: ineffective when administered orally
